SMILES strings stand for the structures.

Experiment [1] deals with Nrf2C (DNA, i motif) CCCTCCCGCCCTTGCTCCCTTCCC
The experiment is described as follows: fluorescent indicator displacement. The conditions noted are these: 100 mM KCl, 10 mM sodium cacodylate pH 6.5, room temperature, thiazole orange displaced.

Experiment [2] has as its system DS (DNA, duplex) GGCATAGTGCGTGGGCGTTAGC/GCTAACGCCCACGCACTATGCC
Description: CD melting (253 nm). The settings on record: 100 mM KCl; 10 mM sodium cacodylate pH 6.5; 50 µM ligand, 10 µM DNA.

For experiment [3], the system named is Nrf2G (DNA, G4) GGGAAGGGAGCAAGGGCGGGAGGG
The experiment is described as follows: UV titration (ligand absorbance). The conditions noted are these: 100 mM KCl, 10 mM sodium cacodylate pH 6.5, DNA up to 50 µM.

For experiment [4] the test system is unchanged. Description: CD melting (264 nm). The settings on record: 100 mM KCl, 10 mM sodium cacodylate pH 6.5, 50 µM ligand, 10 µM DNA.
The test system of experiment [5] is DAPG (DNA, G4) GGGGGCGGGGGCGGGGGCGGGGGCGGGGG
The experiment is described as follows: UV titration (ligand absorbance). The conditions noted are these: 100 mM KCl, 10 mM sodium cacodylate pH 6.5, DNA up to 50 µM.

In experiment [6] the test system is DAPC (DNA, i motif) CCCCCGCCCCCGCCCCCGCCCCCGCCCCC
The experiment is described as follows: UV titration (ligand absorbance). The conditions noted are these: 100 mM KCl, 10 mM sodium cacodylate pH 6.5, DNA up to 50 µM.

In experiment [7] the test system is hTeloC (DNA, i motif) TAACCCTAACCCTAACCCTAACCC
Description: UV titration (ligand absorbance). The settings on record: 100 mM KCl, 10 mM sodium cacodylate pH 6.5, DNA up to 50 µM.

Experiment [8] relates to hTeloG (DNA, G4) GGGTTAGGGTTAGGGTTAGGGTTA
The experiment is described as follows: UV titration (ligand absorbance). The settings on record: 100 mM KCl, 10 mM sodium cacodylate pH 6.5, DNA up to 50 µM.

Experiment [9] deals with Nrf2C (DNA, i motif) CCCTCCCGCCCTTGCTCCCTTCCC
Description: UV titration (ligand absorbance). The settings on record: 100 mM KCl, 10 mM sodium cacodylate pH 6.5, DNA up to 50 µM.

Experiment [10] relates to DS (DNA, duplex) GGCATAGTGCGTGGGCGTTAGC/GCTAACGCCCACGCACTATGCC
Description: UV titration (ligand absorbance). The settings on record: 100 mM KCl, 10 mM sodium cacodylate pH 6.5, DNA up to 50 µM.

Experiment [11] deals with Nrf2C (DNA, i motif) CCCTCCCGCCCTTGCTCCCTTCCC
Description: CD melting (288 nm). The settings on record: 100 mM KCl; 10 mM sodium cacodylate pH 6.5; 50 µM ligand, 10 µM DNA.

Setting [12] is: 0.5 µM DNA (legend; methods 1 µM).

For `Clc1c(Cl)c(Cl)c2[nH]nnc2c1Cl`, in experiment [1] (setting [12]), the DC50 is reported as 3.2 ± 0.1 µM.

As to `COc1cc(-c2ccc(Nc3ccccc3C(=O)O)c(OC)c2)ccc1Nc1ccccc1C(=O)O`, the DC50 in experiment [1] (setting [12]) was 2.3 ± 0.1 µM.

As for `COc1cccc2c1C(=O)c1c(O)c3c(c(O)c1C2=O)C[C@@](O)(C(C)=NO)C[C@@H]3O[C@H]1C[C@H](N)[C@H](O)[C@H](C)O1`, in experiment [1] (setting [12]), the DC50 is reported as 4.9 ± 1.5 µM.

In turn, `Cc1c2ccncc2c(C)c2c1[nH]c1ccccc12` had a DC50 in [1] (setting [12]) of 3.9 ± 1.0 µM.

Take `Cc1ccc(NCCN(C)C)c2c(=O)c3cc(O)ccc3sc12`: the DC50 in [1] (setting [12]) is recorded as 3.4 ± 0.5 µM.

On to `C=Cc1cc(OC)c2c(c1)c(=O)oc1c2cc(OC)c2c(O)ccc(C3OC(C)C(O)C(C)(O)C3O)c21` (stereo not drawn), for which the DC50 in experiment [1] (setting [12]) came to 6.3 ± 0.6 µM.

Molecule `Nc1ccc(-c2nc3nc(N)nc(N)c3nc2-c2ccc(N)cc2)cc1` returned a DC50 in experiment [1] (setting [12]) of 12 ± 3.4 µM.

In the case of `O=C(Nc1ccc(Nc2ccncc2)cc1)c1ccc(Nc2ccnc3ccc([N+](=O)[O-])cc23)cc1[N+](=O)[O-]`, the ΔTm (in general, the shift of the melting midpoint relative to a reference) in experiment [2] was determined as 0 ± 0.7 °C; in experiment [4] (error ± 0.3), 5 ± 1.0 °C. The Kd (in general, the free concentration of one partner at which half of the binding sites on the other are occupied at equilibrium, for simple one-to-one binding) in experiment [3] (ligand monitored at 320 nm) turned out to be 0.6 ± 0.1 µM; in experiment [5] (ligand monitored at 320 nm), 1.6 ± 0.2 µM; in experiment [6] (ligand monitored at 320 nm), 0.9 ± 0.1 µM; in experiment [7] (ligand monitored at 320 nm) it was 1.1 ± 0.2 µM; in [8] (ligand monitored at 320 nm) it was 1.0 ± 0.1 µM; in experiment [9] (ligand monitored at 320 nm), 0.25 ± 0.1 µM. For the same molecule, the Kd in [10] (ligand monitored at 320 nm) was 1.9 ± 0.1 µM. The DC50 in experiment [1] (poor ligand solubility) is recorded as above 20 µM.

In the case of `CCC(=O)c1ccc(O)c(O)c1`, the DC50 in experiment [1] (setting [12]) came to 1.5 ± 0.1 µM.

On to `Cc1cc2nc3ccc(N(C)C)cc3[s+]c2cc1N`, for which the DC50 in experiment [1] (setting [12]) is reported as 16 ± 2.7 µM.

`O=C1c2cccc3cc([N+](=O)[O-])cc(c23)C(=O)N1CCN1CCCC1`: the results for the ΔTm in [2], in experiment [11] and in experiment [4] were 9 ± 0.8 °C, -1 ± 1.0 °C and 9 ± 0.3 °C, respectively. For the same molecule, the Kd worked out at 6.6 ± 0.9 µM in experiment [3] (ligand monitored at 335 nm); 8.2 ± 0.7 µM in experiment [5] (ligand monitored at 335 nm); 6.0 ± 0.9 µM in [6] (ligand monitored at 335 nm); 10 ± 1.3 µM in experiment [7] (ligand monitored at 335 nm); 6.2 ± 0.4 µM in [8] (ligand monitored at 335 nm); 20 ± 1.8 µM in [9] (ligand monitored at 335 nm). The molecule further came in with a Kd in experiment [10] (ligand monitored at 335 nm) of 2.4 ± 0.2 µM. In [1] (setting [12]), this molecule displayed a DC50 of 13 ± 3.0 µM.

Source of the values: article PMC11704350 (2025).
